Assay: Extended room temperature storage of treprostinil monohydrate lot D-1007-089 (18-month stability summary: water content, assay/impurity profile)
Type: physicochemical
Details: for TREPROSTINIL Assay: in % (unit assumed)
Description: 2. UT Stability Summary (18-month) for monohydrate lot # D-1007-089
A 3.4-kg sample of treprostinil diethanolamine salt was dissolved in 36 L of sterile water, 60 L of ethyl acetate and 3.6 L of 3 M HCl were added and the mixture stirred. The layers were separated and the aqueous layer was extracted thrice with 20-L portions of ethyl acetate. The four organic layers were combined, the organic solution washed twice with 20-L portions of sterile water, once with 20 L of brine and dried over 2.86 kg of anhydrous sodium sulfate. The mixture was filtered and the filtrate was concentrated to yield treprostinil as a gummy solid. This solid was transferred to glass drying trays and let air-dry for 66 hours. This solid was then dissolved in 23.8 kg of ethanol, warmed to 48° C. and treated with 23.8 kg of warm (40-50° C.) sterile water. The solution was stirred and then stirring was stopped to allow the treprostinil to slowly crystallize. The resulting white solid was collected by filtration in an Aurora filter, washed with 45 L of a cold (6° C.) 20% ethanol in sterile water solution, the filter moved to a Hepa-filtered Finishing Room and the solid dried under house vacuum for 23 hours. The solid was transferred to glass drying trays and further air-dried for 115 hours until the total weight of the material was constant (no further solvent loss). A sample of this treprostinil monohydrate was taken as Lot #D-1007-089 for stability studies. The remaining material was further dried in a vacuum oven at 55° C. and 1.66 Torr for 10 hours to give 2.68 kg (96.4%) of anhydrous treprostinil (Lot #01G07018).
One of the stability studies has followed the monohydrate of TREPROSTINIL stored in an open container.

[1] = 1 Month, Container 1 (closed), room temperature
[2] = 1 Month, Container 2 (covered with Kimwipe), room temperature
[3] = 2 Months, Container 1 (closed), room temperature
[4] = 2 Months, Container 2 (covered with Kimwipe), room temperature
[5] = 3 Months, Container 1 (closed), room temperature
[6] = 3 Months, Container 2 (covered with Kimwipe), room temperature
[7] = 6 Months, Container 1 (closed), room temperature
[8] = 6 Months, Container 2 (covered with Kimwipe), room temperature
[9] = 12 Months, Container 1 (closed), room temperature
[10] = 12 Months, Container 2 (covered with Kimwipe), room temperature
[11] = 18 Month, Container 1 (closed), room temperature
[12] = 18 Month, Container 2 (covered with Kimwipe), room temperature
[13] = Initial, Container 1 (closed), room temperature
[14] = Initial, Container 2 (covered with Kimwipe), room temperature

750W93 [1]: 0.09%
751W93 [1]: 0.04%
Impurity 1 [1]: 0.05
Impurity 2 [1]: 0.05
TREPROSTINIL Ethyl Ester [1]: 0.2%
Total impurities [1]: 0.5%
TREPROSTINIL Assay [1]: 100.1
750W93 [2]: 0.09%
751W93 [2]: 0.04%
Impurity 1 [2]: 0.05
Impurity 2 [2]: 0.05
TREPROSTINIL Ethyl Ester [2]: 0.2%
Total impurities [2]: 0.5%
TREPROSTINIL Assay [2]: 100.4
750W93 [3]: 0.09%
751W93 [3]: 0.04%
Impurity 1 [3]: 0.05
Impurity 2 [3]: 0.05
TREPROSTINIL Ethyl Ester [3]: 0.2%
Total impurities [3]: 0.5%
Water, KF [3]: 4.46%
TREPROSTINIL Assay [3]: 99.5
750W93 [4]: 0.09%
751W93 [4]: 0.04%
Impurity 1 [4]: 0.05
Impurity 2 [4]: 0.05
TREPROSTINIL Ethyl Ester [4]: 0.2%
Total impurities [4]: 0.5%
Water, KF [4]: 4.47%
TREPROSTINIL Assay [4]: 99.6
750W93 [5]: 0.09%
751W93 [5]: 0.04%
Impurity 1 [5]: 0.06
Impurity 2 [5]: <0.05
TREPROSTINIL Ethyl Ester [5]: 0.2%
Total impurities [5]: 0.5%
Water, KF [5]: 4.51%
TREPROSTINIL Assay [5]: 98.1
750W93 [6]: 0.09%
751W93 [6]: 0.04%
Impurity 1 [6]: 0.06
Impurity 2 [6]: <0.05
TREPROSTINIL Ethyl Ester [6]: 0.2%
Total impurities [6]: 0.5%
Water, KF [6]: 4.48%
TREPROSTINIL Assay [6]: 98.6
750W93 [7]: 0.1%
751W93 [7]: 0.04%
Impurity 1 [7]: <0.05
Impurity 2 [7]: <0.05
TREPROSTINIL Ethyl Ester [7]: 0.2%
Total impurities [7]: 0.6%
Water, KF [7]: 4.59%
TREPROSTINIL Assay [7]: 99.4
750W93 [8]: 0.09%
751W93 [8]: 0.04%
Impurity 1 [8]: <0.05
Impurity 2 [8]: <0.05
TREPROSTINIL Ethyl Ester [8]: 0.2%
Total impurities [8]: 0.6%
Water, KF [8]: 4.72%
TREPROSTINIL Assay [8]: 99.3
750W93 [9]: 0.09%
751W93 [9]: < 0.05%
Impurity 1 [9]: 0.06
Impurity 2 [9]: 0.05
TREPROSTINIL Ethyl Ester [9]: 0.2%
Total impurities [9]: 0.5%
Water, KF [9]: 4.72%
TREPROSTINIL Assay [9]: 100.1
750W93 [10]: 0.09%
751W93 [10]: < 0.05%
Impurity 1 [10]: 0.06
Impurity 2 [10]: 0.05
TREPROSTINIL Ethyl Ester [10]: 0.2%
Total impurities [10]: 0.05%
Water, KF [10]: 4.73%
TREPROSTINIL Assay [10]: 100.3
750W93 [11]: 0.09%
751W93 [11]: < 0.05%
Impurity 1 [11]: <0.05
Impurity 2 [11]: 0.05
TREPROSTINIL Ethyl Ester [11]: 0.2%
Total impurities [11]: 0.05%
Water, KF [11]: 4.67%
TREPROSTINIL Assay [11]: 100.3
750W93 [12]: 0.09%
751W93 [12]: < 0.05%
Impurity 1 [12]: <0.05
Impurity 2 [12]: 0.05
TREPROSTINIL Ethyl Ester [12]: 0.2%
Total impurities [12]: 0.05%
Water, KF [12]: 4.72%
TREPROSTINIL Assay [12]: 99.8
750W93 [13]: 0.1%
751W93 [13]: 0.04%
Impurity 1 [13]: 0.06
Impurity 2 [13]: 0.05
TREPROSTINIL Ethyl Ester [13]: 0.2%
Total impurities [13]: 0.5%
Water, KF [13]: 4.55%
TREPROSTINIL Assay [13]: 99.6
750W93 [14]: 0.1%
751W93 [14]: 0.04%
Impurity 1 [14]: 0.05
Impurity 2 [14]: <0.05
TREPROSTINIL Ethyl Ester [14]: 0.2%
Total impurities [14]: 0.5%
Water, KF [14]: 4.37%
TREPROSTINIL Assay [14]: 99.5
Retention of the one mole of water in the solid (open container, over 18-months): has not disappeared
Stability compared with the anhydrous form (room temperature, e.g. 25° C. / ambient temperatures): more stable than the anhydrous form
Compound: CCCCC[C@H](O)CC[C@@H]1[C@H]2Cc3cccc(OCC(=O)O)c3C[C@H]2C[C@H]1O [TREPROSTINIL Lot# D-1007-089, treprostinil monohydrate]
